Source: patent US20050143453A1, “Selective preventing and therapeutic agents for progressive lesion after organic damage” (priority 2000, published 2005)
Where two headings read alike, the source gives them in different places.

What was measured:
[1] = system: induction of effector macrophage by contact of human PBMC with mitomycin-treated human PBMC (allo-MLC); experiment: SPFC production by allo-MLC stimulation (Test Example 2); type: cell-based; conditions: for functional group (selective suppression of SPFC production by allo-MLC or LPS stimulation): summary of Table 1
[2] = system: induction of effector macrophage by contact of human PBMC with lipopolysaccharide; experiment: SPFC production by LPS stimulation (Test Example 1); type: cell-based
Experimental: A suppressive effect of the test compound to effector macrophage induction was investigated in vitro by an induction and production system of spontaneous plaque-forming cell (SPEC) mentioned in M. Ishibashi, S. Jiang, Y. Kokado, S. Takahara, T. Sonoda: Immunopharmacologic effects of immunosuppressive agents explored by a new effector generation assay. Transplant Proc., 21: 1854-1858, 1989.
Heparin-added peripheral blood (40 ml) was collected from a healthy person and the same amount of EDTA-added physiological saline was added. PBMC were obtained by a specific gravity centrifugal method using Ficoll-Hypaque (manufactured by Pharmacia Fine Chemicals). Self-plasma was added thereto and allowed to stand at 37° C. for 10 minutes and platelets were removed by a low-speed centrifugal separation. RPMI 1640 liquid containing 15 μg/ml of gentamicin and 2 mM L-glutamine was used for washing the PBMC. Concentration of the PBMC was adjusted to 2×10^6 cells/ml using the same liquid.
Each 200 μl of a solution containing 2×10^6 PBMC/ml prepared in the step 1 were added to each well of a micro test plate, lipopolysaccharide (hereinafter, abbreviated as LPS) was diluted with the RPMI 1640 liquid to make the final concentration 80 μg/ml and the said LPS solution was added to each well of the 200 μl-micro test plate. Further, each 50 μl of human serum of type AB were added so as to make the concentration 10% by weight. Two such micro test plates were prepared.
After that, to the above two micro test plates was added a solution where the test compound was diluted with 1% by weight of DMSO so as to make the concentration of the test compound 1 μM. Similarly were prepared each two micro test plates where the final concentrations of the test compound were 0.1 μM, 0.01 μM and 0.001 μM.
The culture liquid prepared as such was incubated for 6 days at 37° C. in 5% CO2.
The effector macrophage induced after the incubation was all recovered using a rubber-policeman (spatula made of rubber). A Hanks solution containing 5 μg/ml of gentamicin was used for washing and, using the said solution, there was prepared a solution where the concentration of the induced effector macrophage was 2×10^6 per ml.
With regard to autologous erythrocytes, those which were preserved at 4° C. in a phosphate physiological saline (hereinafter, abbreviated as PBS) to which 0.1% by weight of AB serum and autologous erythrocytes obtained from PBMC separation were used were used. The preserved autologous erythrocytes were washed for three times with a Hanks solution to which no serum was added and made into a solution of 4% by weight concentration using the said Hanks solution. Poly-L-lysine was added to a Terasaki plate and washed with PBS every 20 minutes at 37° C., the above-mentioned autologous erythrocyte solution was added thereto immediately, the mixture was allowed to stand at 37° C. for 30 minutes and the erythrocytes which were not adhered to the plate were removed to prepare a Terasaki plate to which self-erythrocytes in a monolayer were adhered.
A Hanks solution (4 μl) was added to the said Terasaki plate, 4 μl of a solution containing the induced effector macrophage obtained in the step 3 were added thereto and the mixture was allowed to stand at 37° C. for 2 hours. After completion of the reaction, it was fixed by formalin. Numbers of the produced SPFC which were adhered or phagocytized were measured.
A mean SPFC production number was calculated from the measured values of SPFC production when the concentration of the test compound was the same. SPFC production number per 1×10^6 of the induced effector macrophage was calculated and, from the recovered induced effector macrophage numbers, total SPFC production amount (S2) was calculated.
As a control, no test compound was added and the same operation as above was carried out to calculate the total SPFC production amount (S1). […]

[3] = system: obstruction-released kidney of male SD rats; experiment: Obstruction release model after complete obstruction of unilateral ureter for 14 days (UUO/Release, Test Example 3); type: in vivo, rat; set-up: key to Suppressive Effect to Glomerular Lesion / Suppressive Effect to Lesion of Tubulointerstitial Tissue: ∘: available; Δ: somewhat available; x: not available; conditions: for Rate of Cases where Glomerular Lesion was Suppressed / Serum Creatinine level (mg/dl) on the 7th Day from Release of Obstruction / Weight of Kidney (g) on the 7th Day from Release of Obstruction / Rate of Cases where tubulointerstitial Lesion was Suppressed: Table 2
Experimental: Obstruction Release Model after Complete Obstruction of Unilateral Ureter for 14 Days
Experimental models were prepared by a method devised and established by Ishibashi (Michio Ishibashi, et al.: The Japanese Journal of Nephrology, 42: 248, 2000) using male SD rats of 8-9 weeks age and about 280 g. Thus, the rat was laparotomized under anesthetization with ether and ureter was ligated with 7-0 Nylon at the height of the margin of lower pole of left kidney to close the abdomen. On the 14th day after obstruction, the obstruction was released and urinary passage was reconstructed using a cuff. Thus, after 14 days, the part of ligated obstructed ureter was resected, a polyethylene tube of 25 gages (manufactured by Nippon Sherwood) was used as a cuff and inserted into and retained at the lumen from the cut end of the lower normal ureter, then the cuff was also retained in the expanded upper ureter and each of them was ligated and fixed by 7-0 Nylon to reconstruct the urinary passage. At the same time, the right kidney at the opposite side was excised. After the release of the obstruction, body weight was measured, blood was collected on the 2nd day, 5th day and 7th day from the release to measure serum creatinine, then the rat was sacrificed under anesthetization and the left obstruction-released kidney was excised. With regard to the excised kidney, there were carried out measurement of weight of the kidney and pathological test for the kidney.
An in vivo biological test was carried out for the γ-lactone derivatives according to the present invention using the above models. With regard to the test compound, bulk powder of the test compound was dissolved in an aseptic physiological saline together with gum arabic and the final concentration of gum arabic was 5%(vol/vol). The concentration of the test compound 30 mg/ml was suspended in 5% gum arabic-saline solution. The preparation was subcutaneously injected at the dose of 30 mg/kg every day throughout the experiment. With regard to the test compound, there were used (9-1), (4-2) and (7-3) as the compounds of group I suppressing the SPFC production by allo-MLC stimulation, i.e., the compounds which selectively suppress the induction of effector macrophage in the presence of allo-MLC while there was used (3-2) as the compound of group II suppressing the SPFC production by LPS stimulation, i.e., the compounds which selectively suppress the induction of effector macrophage in the presence of LPS.
In the Table, “functional classification” of the compound means the above group I, group II and group III. “Compound” means the compound bearing each of the above-mentioned compound numbers. The fact whether glomerular lesion was suppressed was judged by the ameriolation of the lesions such as thickness of wall of Bowman's capsule, hyperplasia of mesangial cells and glomerular sclerosis. The fact whether lesion of tubulointerstitial tissue was suppressed was judged by the ameriolation of the lesions such as thickness of basement membrane of tubules, cellular infiltration and fibrosis of interstitial tissue. In the table, “control” is the result when the same test as above was carried out using 5% gum arabic only which is a solvent.
In order to further confirm whether the preventive and therapeutic effect of the γ-lactone derivatives of the present invention to the target cell damage is selective, (7-3) of the group I and (6-1) of the group II were used as test compounds and they were subcutaneously injected at the dose of 30 mg/kg every day and compared with the control group. With regard to the control group, only 5% gum arabic which is a solvent was used and the same test as above was carried out.

[4] = system: lesion of tubulointerstitial tissue / glomerulus; experiment: Suppression of renal lesion in vivo by active metabolites (model not stated)
[5] = 144 h, human PBMC with mitomycin-treated human PBMC, incubated 6 days, Table 1, read-out: SPFC Production Inhibiting Concentration by all-MLC Stimulation (μM: IC50)
[6] = Homo sapiens, Table 5, read-out: Inhibiting Concentration for SPEC Production by allo-MLC Stimulation (μM: IC50)
[7] = 144 h, human PBMC with LPS 80 μg/ml, incubated 6 days, Table 1, read-out: SPFC Production Inhibiting Concentration by LPS Stimulation (μM: IC50)
[8] = Homo sapiens, Table 5, read-out: Inhibiting Concentration for SPEC Production by LPS Stimulation (μM: IC50)
[9] = 30 mg/kg subcutaneously every day
[10] = Experimental Model of Rat: UUO/Release
[11] = Experimental Model of Rat: UUO/Release and CPN

Compound	IC50 [1, 5]	IC50 [1, 6]	functional group (selective suppression of SPFC production by allo-MLC or LPS stimulation) [1]	IC50 [2, 7]	IC50 [2, 8]	selectivity of the suppressive effect on renal lesions [3, 9]	suppression of glomerular lesion [3, 9]	suppression of lesion of tubulointerstitial tissue [3, 9]	Rate of Cases where Glomerular Lesion was Suppressed [3, 9]	Serum Creatinine level (mg/dl) on the 7th Day from Release of Obstruction [3, 9]	Weight of Kidney (g) on the 7th Day from Release of Obstruction [3, 9]	Suppressive Effect to Glomerular Lesion [3, 10]	Suppressive Effect to Lesion of Tubulointerstitial Tissue [3, 10]	Rate of Cases where tubulointerstitial Lesion was Suppressed [3, 9]	Suppressive Effect to Glomerular Lesion [3, 11]	Suppressive Effect to Lesion of Tubulointerstitial Tissue [3, 11]	suppression of SPFC production by LPS stimulation [2]	suppression of lesion of glomerulus in vivo [4]
CC(OC(=O)[C@@]1(Oc2ccc(F)cc2)CCC(=O)O1)c1ccc2ccccc2c1 (mixture of isomers) [(3-2), (RS)-(+)-α-methyl-2-naphthalene-methyl 2-(4-fluorophenoxy)-5-oxotetrahydrofuran-2-carboxylate]	> 1 µM	> 1 µM	group II	1 µM	1 µM	selective suppressive effect	suppressed the glomerular lesion only	did not suppress	100% (5/5)	2.0 ± 0.4 mg/dL	4.36 ± 0.95 g	∘	x	–	–	–	–	–
CCOC(=O)C1(Oc2ccc(F)cc2)CCC(=O)O1 (racemic) [Conventional Compound, ethyl 2-(4-fluorophenoxy)-5-oxo-2-tetrahydrofurancarboxylate, reference compound]	0.1 µM	0.1 µM	–	0.1 µM	0.1 µM	no selective suppression was observed	–	–	75% (3/4)	2.2 ± 0.2 mg/dL	2.73 ± 0.41 g	–	–	75% (3/4)	∘	∘	–	–
CC(OC(=O)[C@]1(Oc2ccc(F)cc2)CCC(=O)O1)c1ccc2ccccc2c1 (mixture of isomers) [(4-2), (RS)-(+)-α-methyl-2-naphthalene-methyl 2-(4-fluorophenoxy)-5-oxotetrahydrofuran-2-carboxylate]	0.01 µM	0.01 µM	group I	> 1 µM	> 1 µM	selective suppressive effect	–	–	50% (2/4)	2.7 ± 0.3 mg/dL	3.94 ± 0.32 g	Δ	∘	100% (4/4)	–	–	–	–
O=C1OC(Cl)(C(=O)OCc2ccccc2)c2ccccc21 (stereo not shown) [(7-3), Benzyl 1-chloro-3-oxo-1,3-dihydro-isobenzofuran-1-carboxylate]	0.01 µM	0.01 µM	group I	> 1 µM	0.01 µM	selective suppressive effect	–	–	25% (1/4)	2.0 ± 0.6 mg/dL	2.72 ± 0.47 g	x	∘	100% (4/4)	–	–	–	–
benzyl 2-ketoglutarate [(9-2)]	–	–	–	–	–	–	–	–	–	–	–	–	–	–	–	–	selectively suppresses	able to suppress
O=C1CCC(F)(C(=O)OCc2ccccc2)O1 (stereo not shown) [(6-2), Benzyl 2-fluoro-5-oxotetrahydrofuran-2-carboxylate]	–	–	group II	0.001 µM	0.001 µM	–	–	–	–	–	–	∘	x	–	–	–	–	–
